We go through 17 compounds from patent US12441768B2, “Compositions and methods for treating endometriosis” (EndoMet Biosciences, Inc., priority 2018, dated 2025).

Where a SMILES comes first, the peptide text is derived from it. The star is where a group is joined. Bn = c1ccc(C*)cc1 Bounds are passed on as bounds.

The conditions of series [1]: % Viability non-Wnt responsive cells.
In series [2] the target is Wnt-responsive promoter (TCF/LEF). Description: Wnt-dependent luciferase reporter assay. The class given is cell-based, murine. The method, boiled down:
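EC50 (uM) derived from inhibition of luminescence in Wnt3a-stimulated murine 3T3 cells expressing luciferase under a TCF/LEF promoter, with peptides added across a concentration range and vehicle as control.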
In general terms: Reporter assays use an easily measured gene product as a stand-in for the process of interest.

In series [3] the target is T1, β-catenin (Homo sapiens, UniProt P35222).
T1 sequence (P35222 1-781): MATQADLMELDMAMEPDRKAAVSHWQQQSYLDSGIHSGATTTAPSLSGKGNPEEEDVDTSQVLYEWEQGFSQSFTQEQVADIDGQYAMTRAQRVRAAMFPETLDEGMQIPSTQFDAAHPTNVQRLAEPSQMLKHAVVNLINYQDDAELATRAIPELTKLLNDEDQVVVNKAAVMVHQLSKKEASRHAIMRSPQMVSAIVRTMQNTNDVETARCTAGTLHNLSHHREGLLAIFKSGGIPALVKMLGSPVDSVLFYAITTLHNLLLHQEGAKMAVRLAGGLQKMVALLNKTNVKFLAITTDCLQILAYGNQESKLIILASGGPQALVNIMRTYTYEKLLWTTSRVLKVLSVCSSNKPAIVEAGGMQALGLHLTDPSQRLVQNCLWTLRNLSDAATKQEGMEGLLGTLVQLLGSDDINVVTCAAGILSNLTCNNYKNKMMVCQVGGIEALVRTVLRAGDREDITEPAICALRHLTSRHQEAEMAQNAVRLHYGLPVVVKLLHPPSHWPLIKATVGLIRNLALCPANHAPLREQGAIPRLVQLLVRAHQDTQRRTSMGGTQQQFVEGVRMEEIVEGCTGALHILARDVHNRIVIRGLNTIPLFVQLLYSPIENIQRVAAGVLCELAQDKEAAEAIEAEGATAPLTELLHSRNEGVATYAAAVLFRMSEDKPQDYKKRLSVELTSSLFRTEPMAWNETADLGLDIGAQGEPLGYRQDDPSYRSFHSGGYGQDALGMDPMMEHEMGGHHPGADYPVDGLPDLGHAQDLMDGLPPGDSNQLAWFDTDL
Briefly: KD50 measurement using competitive fluorescence polarization (FP) with labelled TCF4. The class given is binding. Particulars: fluorescence polarization, β-catenin; for Kd: read-out: β-Cat FP KD. In a few lines:
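First, β-catenin at 100 nM is mixed with 5 nM labelled TCF4 at room temperature. Next, compound is added across serial dilutions (10 nM to 30 uM). Finally, fluorescence polarization is measured (ex 470 nm, em 520 nm); experiments are done three times.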
In general terms: Fluorescence polarisation rises when a labelled molecule tumbles more slowly, as on binding a larger partner.

As to `CC[C@H](C)[C@H](NC(=O)[C@H](CC(C)C)NC(=O)[C@H](Cc1ccccc1)NC(=O)[C@H](Cc1c[nH]c2ccccc12)NC(=O)[C@H](Cc1c[nH]cn1)NC(=O)[C@H](CCCNC(=N)N)NC(=O)[C@H](CO)NC(=O)[C@@H](N)CCCCN)C(=O)N[C@@H](CO)C(=O)N[C@@H](Cc1ccccc1)C(=O)N[C@@H](Cc1c[nH]c2ccccc12)C(N)=O` [compound 94] (H-KSRHWFLISFW-NH2), the viability in series [1] was 118%. The EC50 in series [2] is above 30 µM. In series [3], the Kd is above 30 µM.

As to `CC[C@H](C)[C@H](NC(=O)[C@H](CC(C)C)NC(=O)[C@H](Cc1ccccc1)NC(=O)[C@H](Cc1c[nH]c2ccccc12)NC(=O)[C@H](Cc1c[nH]c2ccccc12)NC(=O)[C@H](CCCNC(=N)N)NC(=O)[C@H](CO)NC(=O)[C@@H](N)CCCCN)C(=O)N[C@@H](CO)C(=O)N[C@@H](Cc1ccccc1)C(=O)N[C@@H](Cc1c[nH]c2ccccc12)C(N)=O` [compound 95] (H-KSRWWFLISFW-NH2), in series [1], the viability worked out at 109%. In series [2], this compound registered an EC50 above 30 µM. In series [3], the Kd is above 30 µM.

Consider `CC[C@H](C)[C@H](NC(=O)[C@H](CC(C)C)NC(=O)[C@H](Cc1ccccc1)NC(=O)[C@H](Cc1c[nH]c2ccccc12)NC(=O)[C@@H](N)CCSC)C(=O)N[C@@H](CO)C(=O)N[C@@H](CO)C(=O)N[C@@H](Cc1c[nH]c2ccccc12)C(=O)O` [compound 96] (H-MWFLISSW-OH), for which the viability in series [1] was found to be 97.3%. The compound also had an EC50 in series [2] of 7.5 to 15 µM. In addition, in series [3], the “β-Cat FP Hill slope” value was found to be 0.7 and the Kd is 10 to 30 µM.

As for `CC[C@H](C)[C@H](NC(=O)[C@H](CC(C)C)NC(=O)[C@H](Cc1ccccc1)NC(=O)[C@@H](N)Cc1c[nH]c2ccccc12)C(=O)N[C@@H](CO)C(=O)N[C@@H](CO)C(=O)N[C@@H](Cc1c[nH]c2ccccc12)C(=O)O` [compound 97] (H-WFLISSW-OH), the viability in series [1] is 102%. This compound also returned an EC50 in series [2] of 22.5 to 30 µM. In addition, in series [3], the “β-Cat FP Hill slope” value was 2.45 and the Kd lay in the range of 1 to 10 µM.

Take `CC[C@H](C)[C@H](NC(=O)[C@H](CC(C)C)NC(=O)[C@H](Cc1ccccc1)NC(=O)[C@@H](N)Cc1c[nH]c2ccccc12)C(=O)N[C@@H](CO)C(=O)N[C@@H](Cc1ccccc1)C(=O)N[C@@H](Cc1c[nH]c2ccccc12)C(N)=O` [compound 98] (H-WFLISFW-NH2): the viability in series [1] is 96%. Also, the EC50 in series [2] is above 30 µM. Also, in series [3], the “β-Cat FP Hill slope” value is 1.02 and the Kd lay in the range of 1 to 10 µM.

As for `CC[C@H](C)[C@H](NC(=O)[C@H](CC(C)C)NC(=O)[C@H](Cc1ccccc1)NC(=O)[C@H](Cc1c[nH]c2ccccc12)NC(=O)[C@H](CCSC)NC(=O)[C@H](CCCNC(=N)N)NC(=O)[C@H](CO)NC(=O)[C@@H](N)CCSC)C(=O)N[C@@H](CO)C(=O)N[C@@H](CO)C(=O)N[C@@H](Cc1c[nH]c2ccccc12)C(=O)O` [compound 99] (H-MSRMWFLISSW-OH), in series [1], the viability was 97.3%. Moreover, the EC50 in series [2] fell in the range of 22.5 to 30 µM. Moreover, in series [3], the “β-Cat FP Hill slope” value is listed as 0.7 and the Kd lay within 1 to 10 µM.

Take `CC[C@H](C)[C@H](NC(=O)[C@H](CC(C)C)NC(=O)[C@H](Cc1ccccc1)NC(=O)[C@@H](N)Cc1c[nH]c2ccccc12)C(=O)N[C@H](C(=O)N[C@H](C(=O)N[C@@H](Cc1c[nH]c2ccccc12)C(=O)O)[C@@H](C)O)[C@@H](C)O` [compound 100] (H-WFLITTW-OH): in series [1], the viability is 102%. For the same compound, in series [2], the EC50 lay within 7.5 to 15 µM. Besides, in series [3], the “β-Cat FP Hill slope” value is given as 2.8 and the equilibrium dissociation constant (Kd) lay in the range of 1 to 10 µM.

As to `CC[C@H](C)[C@H](NC(=O)[C@H](CC(C)C)NC(=O)[C@H](Cc1ccccc1)NC(=O)[C@@H](N)Cc1c[nH]c2ccccc12)C(=O)N[C@@H](CO)C(=O)N[C@@H](COCc1ccccc1)C(=O)N[C@@H](Cc1c[nH]c2ccccc12)C(=O)O` [compound 101] (H-WFLISS(Bn)W-OH), the viability in series [1] amounted to 106%. The compound also returned an EC50 in series [2] of 7.5 to 15 µM. Moreover, in series [3], the “β-Cat FP Hill slope” value was 3 and the Kd is 1 to 10 µM.

`CC[C@H](C)[C@H](NC(=O)[C@H](CC(C)C)NC(=O)[C@H](Cc1ccccc1)NC(=O)[C@H](Cc1c[nH]c2ccccc12)NC)C(=O)N[C@@H](CO)C(=O)N[C@@H](Cc1ccccc1)C(=O)N[C@@H](Cc1c[nH]c2ccccc12)C(N)=O` [compound 102] (HELM PEPTIDE1{[meW].F.L.I.S.F.W.[am]}$$$$V2.0): the viability in series [1] turned out to be 101%. The same compound showed an EC50 in series [2] of 15 to 22.5 µM. For the same compound, in series [3], the “β-Cat FP Hill slope” value was found to be 0.7 and the Kd is below 0.4 µM.

Regarding `CC[C@H](C)[C@H](NC(=O)[C@H](CC(C)C)NC(=O)[C@H](Cc1ccccc1)NC(=O)[C@@H](N)Cc1c[nH]c2ccccc12)C(=O)N[C@@H](CO)C(=O)N[C@H](C(=O)N[C@@H](Cc1c[nH]c2ccccc12)C(=O)O)[C@@H](C)O` [compound 103] (H-WFLISTW-OH), the viability in series [1] amounted to 102%. In series [2], this compound returned an EC50 of 15 to 22.5 µM. Further, in series [3], the “β-Cat FP Hill slope” value is on record as 1.71 and the dissociation constant Kd was 1 to 10 µM.

Consider `CCOC[C@H](NC(=O)[C@H](CO)NC(=O)[C@@H](NC(=O)[C@H](CC(C)C)NC(=O)[C@H](Cc1ccccc1)NC(=O)[C@@H](N)Cc1c[nH]c2ccccc12)[C@@H](C)CC)C(=O)N[C@@H](Cc1c[nH]c2ccccc12)C(=O)O` [compound 104] (H-WFLISS(Et)W-OH), for which, in series [1], the viability is 104%. Moreover, the EC50 in series [2] lay within 7.5 to 15 µM. Further, in series [3], the “β-Cat FP Hill slope” value worked out at 3 and the equilibrium dissociation constant (Kd) fell in the range of 1 to 10 µM.

On to `CCOC[C@H](NC(=O)[C@H](CO)NC(=O)[C@@H](NC(=O)[C@H](CC(C)C)NC(=O)[C@H](Cc1ccccc1)NC(=O)[C@H](Cc1c[nH]c2ccccc12)NC(=O)[C@H](CCSC)NC(=O)[C@H](CCCNC(=N)N)NC(=O)[C@H](CO)NC(=O)[C@@H](N)CCSC)[C@@H](C)CC)C(=O)N[C@@H](Cc1c[nH]c2ccccc12)C(=O)O` [compound 105] (H-MSRMWFLISS(Et)W-OH), for which, in series [1], the viability is 96.8%. Besides, the EC50 in series [2] fell in the range of 7.5 to 15 µM. In series [3], the “β-Cat FP Hill slope” value was determined as 0.7 and the Kd fell in the range of 1 to 10 µM.

As to `CC[C@H](C)[C@H](NC(=O)[C@H](CC(C)C)NC(=O)[C@H](Cc1ccccc1)NC(=O)[C@H](Cc1c[nH]c2ccccc12)NC(=O)[C@H](CCSC)NC(=O)[C@H](CCCNC(=N)N)NC(=O)[C@H](CO)NC(=O)[C@@H](N)CCSC)C(=O)N[C@@H](CO)C(=O)N[C@@H](COCc1ccccc1)C(=O)N[C@@H](Cc1c[nH]c2ccccc12)C(=O)O` [compound 106] (H-MSRMWFLISS(Bn)W-OH), in series [1], the viability stood at 105%. For the same compound, the EC50 in series [2] fell in the range of 15 to 22.5 µM. In series [3], the “β-Cat FP Hill slope” value is 0.7 and the Kd is 1 to 10 µM.

For `CC[C@H](C)[C@H](NC(=O)[C@H](CC(C)C)NC(=O)[C@H](Cc1ccccc1)NC(=O)[C@H](Cc1c[nH]c2ccccc12)NC(=O)[C@@H](N)CCSC)C(=O)N[C@@H](CO)C(=O)N[C@@H](Cc1ccccc1)C(=O)N[C@@H](Cc1c[nH]c2ccccc12)C(N)=O` [compound 107] (H-MWFLISFW-NH2), the viability in series [1] stood at 100%. In series [2], this compound displayed an EC50 of 7.5 to 15 µM. Further, in series [3], the “β-Cat FP Hill slope” value was 0.7 and the Kd lay within 1 to 10 µM.

`CC[C@H](C)[C@H](NC(=O)[C@H](CC(C)C)NC(=O)[C@H](Cc1ccccc1)NC(=O)[C@H](Cc1c[nH]c2ccccc12)NC(=O)[C@@H](N)CCSC)C(=O)N[C@@H](CO)C(=O)N[C@@H](Cc1ccccc1)C(=O)N[C@@H](Cc1c[nH]c2ccccc12)C(=O)NCC(N)=O` [compound 108] (H-MWFLISFWG-NH2): the viability in series [1] was 102%. Besides, the EC50 in series [2] was in the range of 7.5 to 15 µM. Further, in series [3], the “β-Cat FP Hill slope” value turned out to be 0.7 and the Kd lay within 0.4 to 1 µM.

`CC[C@H](C)[C@H](NC(=O)[C@H](CC(C)C)NC(=O)[C@H](Cc1ccccc1)NC(=O)[C@@H](N)Cc1c[nH]c2ccccc12)C(=O)N[C@@H](CO)C(=O)N[C@@H](Cc1ccc(O)cc1)C(=O)N[C@@H](Cc1c[nH]c2ccccc12)C(=O)O` [compound 109] (H-WFLISYW-OH): the viability in series [1] was determined as 103%. This compound gave an EC50 in series [2] of 7.5 to 15 µM. In addition, in series [3], the “β-Cat FP Hill slope” value is on record as 3 and the Kd lay in the range of 1 to 10 µM.

Regarding `CC[C@H](C)[C@H](NC(=O)[C@H](CC(C)C)NC(=O)[C@H](Cc1ccccc1)NC(=O)[C@@H](N)Cc1c[nH]c2ccccc12)C(=O)N[C@@H](CO)C(=O)N[C@@H](Cc1ccccc1)C(=O)N[C@@H](Cc1c[nH]c2ccccc12)C(=O)O` [compound 110] (H-WFLISFW-OH), the viability in series [1] was 103%. Also, the half-maximal effective concentration (EC50) in series [2] was in the range of 7.5 to 15 µM. Further, in series [3], the “β-Cat FP Hill slope” value came out at 3 and the dissociation constant (Kd) was in the range of 1 to 10 µM.

For orientation: viability means a read-out of living cells in per cent, often relative to untreated cells. What is called EC50 is the midpoint of the concentration-response curve. For orientation: Kd means the concentration at which binding is half-saturated.
